Laboratory results reported in ChEMBL document CHEMBL3774371, “Pyrrolidinones as Modulators of Neurogenesis” (2016).

Tested on: NSC
Assay: Neurogenic activity in human NSC assessed as increase in cells measured as ATP level after 4 days by Cell titre glo assay
Format: functional

Row | Compound | EC150
1 | COc1cc(N2CCN(Cc3cccc(OC(F)(F)F)c3)C2=O)ccc1-c1cn[nH]c1 | 0.0092 µM
2 | COc1cccc(CN2CCN(c3ccc(-c4cn[nH]c4)c(F)c3)C2=O)c1 | 0.0157 µM
3 | CCOc1cccc(CN2CCN(c3ccc(-c4cn[nH]c4)c(OC)c3)C2=O)c1 | 0.0739 µM
4 | COc1cc(N2CCN(Cc3cccc(C(F)(F)F)c3)C2=O)ccc1-c1cn[nH]c1 | 0.0086 µM
5 | COc1cc(N2CCN(Cc3ccncc3)C2=O)ccc1-c1cn[nH]c1 | 0.042 µM
6 | O=C1C(c2ccc(F)cc2)CCN1c1ccc(-c2cn[nH]c2)cc1 (stereo not drawn) | 0.0417 µM
7 | COc1cc(N2CCC(c3cccc(F)c3)C2=O)ccc1-c1cn[nH]c1 (stereo not drawn) | 0.0776 µM
8 | CCOc1cc(N2CCN(Cc3cccc(OC)c3)C2=O)ccc1-c1cn[nH]c1 | 0.8349 µM
9 | O=C1C(c2ccc(Cl)cc2)CCN1c1ccc(-c2cn[nH]c2)cc1 (stereo not drawn) | 0.384 µM
10 | COc1cc(N2CCCN(Cc3ccccc3Cl)C2=O)ccc1-c1cn[nH]c1 | 1.9918 µM
11 | COc1cccc(C2CCN(c3ccc(-c4cn[nH]c4)cc3)C2=O)c1 (stereo not drawn) | 0.0405 µM
12 | CCC1(c2ccccc2)CCN(c2ccc(-c3cnco3)c(OC)c2)C1=O (stereo not drawn) | 3.2257 µM
13 | O=C1C(c2cccc(Cl)c2)CCN1c1ccc(-c2cn[nH]c2)cc1 (stereo not drawn) | 0.2304 µM
14 | CCOc1cc(N2CCN(CCc3ccccc3OC)C2=O)ccc1-c1cn[nH]c1 | 1.9784 µM
15 | COc1cccc(CC2CCN(c3ccc(-c4cn[nH]c4)c(OC)c3)C2=O)c1 (stereo not drawn) | 0.0239 µM
16 | COc1cc(N2CCC(c3ccccc3)C2=O)ccc1-c1cnco1 (stereo not drawn) | 0.4712 µM
17 | CCOc1cc(N2CCN(CCc3ccccc3Cl)C2=O)ccc1-c1cn[nH]c1 | 0.1358 µM
18 | COc1cc(N2CCC(c3ccccc3Cl)C2=O)ccc1-c1cnco1 (stereo not drawn) | 0.6783 µM
